Source: patent US8563559B2 (Rigel Pharmaceuticals, Inc., priority 2006, dated 2013)
pIC50: −log10 of the molar value.

The compounds below were run against T1, Axl (Homo sapiens, UniProt P30530) (assay: Phospho-AKT in-cell Western assay (inhibition of Axl activity)). Conditions: Table 1, formula (Ia); Hela cells, Axl antibody cross-linking stimulation, phospho-Akt chemiluminescence normalized to relative cell number.
T1 construct: endogenous in cells; host or cells: HeLa
T1 sequence (P30530 26-894): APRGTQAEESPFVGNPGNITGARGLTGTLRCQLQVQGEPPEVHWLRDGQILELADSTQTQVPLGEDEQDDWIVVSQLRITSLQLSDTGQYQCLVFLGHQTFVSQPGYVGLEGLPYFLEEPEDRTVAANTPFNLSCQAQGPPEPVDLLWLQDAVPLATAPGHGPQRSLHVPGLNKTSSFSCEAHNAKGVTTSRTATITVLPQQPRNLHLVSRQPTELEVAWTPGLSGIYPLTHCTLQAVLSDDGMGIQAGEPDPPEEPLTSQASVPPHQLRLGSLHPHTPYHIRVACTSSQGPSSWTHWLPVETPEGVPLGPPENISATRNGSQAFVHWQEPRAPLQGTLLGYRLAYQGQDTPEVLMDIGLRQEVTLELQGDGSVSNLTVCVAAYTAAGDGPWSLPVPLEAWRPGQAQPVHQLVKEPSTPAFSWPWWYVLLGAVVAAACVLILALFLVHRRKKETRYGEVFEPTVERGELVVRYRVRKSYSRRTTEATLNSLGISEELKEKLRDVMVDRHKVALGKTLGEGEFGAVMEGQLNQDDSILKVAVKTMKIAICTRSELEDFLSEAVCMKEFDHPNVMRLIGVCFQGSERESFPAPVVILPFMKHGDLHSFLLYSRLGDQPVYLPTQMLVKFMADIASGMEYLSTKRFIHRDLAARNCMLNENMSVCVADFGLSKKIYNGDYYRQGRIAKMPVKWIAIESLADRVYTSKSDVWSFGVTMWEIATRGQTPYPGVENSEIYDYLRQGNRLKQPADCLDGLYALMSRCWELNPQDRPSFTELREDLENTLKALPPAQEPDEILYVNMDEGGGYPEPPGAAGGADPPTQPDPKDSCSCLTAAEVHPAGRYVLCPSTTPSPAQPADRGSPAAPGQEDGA
Type: cell-based
Experimental: The compounds of the invention were tested in the following assay for their ability to inhibit Axl activity.
Phospho-AKT in-Cell Western Assay
• Cell culture plate: 96 well assay plate (Corning 3610), white, clear bottom, tissue-culture treated. • Cells: Hela cells. • Starvation medium: For Axl stimulation: 0.5% FCS (fetal calf serum) in DMEM, plus Axl/Fc (extracellular domain of AXL fused to immunoglobulin Fc region) (R&D, 154-AL) 500 ng/mL. • For EGF (epidermal growth factor) stimulation: 0.5% FCS in DMEM (Dulbecco's modified Eagles medium). • Poly-L-Lysine 0.01% solution (the working solution): 10 μg/ml, dilute In PBS (phosphate buffered saline). • Axl antibody cross-linking: • 1st: Mouse anti-Axl (R&D, MAB154). • 2nd: Biotin-SP-conjugated AffiniPure goat anti-mouse IgG (H+L) (Jackson ImmunoResearch #115-065-003). • Fixing buffer: 4% formaldehyde in PBS. • Wash buffer: 0.1% TritonX-100 in PBS. • Quenching buffer: 3% H2O2, 0.1% Azide in wash buffer, Azide and hydrogen peroxide 1(H2O2) are added fresh. • Blocking buffer: 5% BSA in TBST (tris buffered saline plus 0.1% Tween 20). • Primary antibody: Rabbit anti-human Phospho-Akt antibody (Cell Signaling 9271): 1×250 diluted in blocking buffer. • Secondary antibody: HRP (horse radish peroxidase)-conjugated Goat anti-Rabbit secondary, stock solution: Jackson ImmunoResearch (Goat anti-Rabbit HRP, #111-035-144) 1:1 diluted in glycerol, store at −20° C. The working solution: 1×2000 dilution of stock in blocking buffer. • Chemiluminescent working solution (Pierce, 37030): SuperSignal ELISA (enzyme linked immunosorbant assay) Pico Chemiluminescent substrate. • Crystal Violet solution: Stock: 2.5% Crystal violet in methanol, filtered and kept at ambient temperature. The working solution: dilute the stock 1:20 with PBS immediately before use. • 10% SDS: working solution: 5% SDS (sodium dodecylsulfate), diluted in PBS Methods: Day 1:
A 96 well TC (tissue culture treated) plate was coated with 10 μg/mL poly-L-Lysine at 37° C. for 30 min, washed twice with PBS, and air-dried for 5 minutes before cells were added. Hela cells were seeded at 10,000 cells/well and the cells were starved in 100 μL starvation medium containing Axl/Fc for 24 hrs.
The cells were pre-treated with test compounds by adding 100 μL of 2× test compound to the starvation medium on the cells. The cells were incubated at 37° C. for 1 hr before stimulation.
The cells were stimulated by Axl-antibody cross-linking as follows: A 5×1st/2nd Axl antibody mixture was made (37.5 μg/mL 1st/100 μg/mL 2nd) in starvation medium and nutated at 4° C. with thorough mixing for 1-2 hours for clustering. The resulting mix was warmed to 37° C. 50 μL of 5×Axl 1st/2nd of antibody cluster was added to the cells and the cells were incubated at 37° C. for 5 min.
After 5 minutes stimulation, the plate was flicked to remove medium and the plate was tapped onto paper towels. Formaldehyde (4.0% in PBS, 100 μL) was added to fix the cells and the cells were incubated at ambient temperature for 20 min without shaking.
The cells were washed with a plate washer buffer to remove the formaldehyde solution. The plate was flicked to removed excess wash buffer and tapped onto paper towels. Quenching buffer (100 μL) was added to each well and the cells were incubated at ambient temperature for 20 minutes without shaking.
The cells were washed with a plate washer buffer to remove the quenching buffer. Blocking buffer (100 μL) was added and the cells were incubated at ambient temperature for at least an hour with gentle shaking.
The cells were washed with a plate washer buffer and diluted primary antibody (50 μL) was added to each well (blocking buffer was added to the negative control wells instead). The plates were incubated overnight at 4° C. with gentle shaking.
The wash buffer was removed, diluted secondary antibody (100 μL) was added, and the cells were incubated at ambient temperature for 1 hour with gentle shaking. […]

Structure (SMILES) | pIC50
CNC(=O)[C@H]1C[C@H]2C[C@H](C2(C)C)[C@@]1(C)Nc1nc(Nc2ccc(OCCN3CCCC3)cc2)ncc1Cl [Compound 1, (1R,2R,3S,5R)-2-(5-chloro-2-(4-(2-(pyrrolidin-1-yl)ethoxy)phenylamino)pyrimidin-4-ylamino)-N,2,6,6-tetramethylbicyclo[3.1.1]heptane-3-carboxamide] | > 6.00
CNC(=O)[C@H]1C[C@H]2C[C@H](C2(C)C)[C@@]1(C)Nc1nc(Nc2ccc(OCCN3CCCC3)c(F)c2)ncc1Cl [Compound 3, (1R,2R,3S,5R)-2-(5-chloro-2-(3-fluoro-4-(2-(pyrrolidin-1-yl)ethoxy)phenylamino)pyrimidin-4-ylamino)-N,2,6,6-tetramethylbicyclo[3.1.1]heptane-3-carboxamide] | > 6.00
CNC(=O)[C@H]1C[C@H]2C[C@H](C2(C)C)[C@@]1(C)Nc1nc(Nc2ccc(N3CCN(S(C)(=O)=O)CC3)c(Cl)c2)ncc1F [Compound 36, (1R,2R,3S,5R)-2-(5-fluoro-2-(3-chloro-4-(4-methylsulfonylpiperazin-1-yl)phenylamino)pyrimidin-4-ylamino)-N,2,6,6-tetramethylbicyclo[3.1.1]heptane-3-carboxamide] | 5.00 to 6.00
CNC(=O)[C@H]1C[C@H]2C[C@H](C2(C)C)[C@@]1(C)Nc1nc(Nc2ccc(N3CCC(N4CCC(C)CC4)CC3)c(F)c2)ncc1Cl [Compound 54, (1R,2R,3S,5R)-2-(5-chloro-2-(3-fluoro-4-(4-(4-methylpiperidin-1-yl)piperidin-1-yl)phenylamino)pyrimidin-4-ylamino)-N,2,6,6-tetramethylbicyclo[3.1.1]heptane-3-carboxamide] | > 6.00
CNC(=O)[C@H]1C[C@H]2C[C@H](C2(C)C)[C@@]1(C)Nc1nc(Nc2ccc(C(=O)N3CCN(C)CC3)c(Cl)c2)ncc1Cl [Compound 14] | > 6.00
CNC(=O)[C@H]1C[C@H]2C[C@H](C2(C)C)[C@@]1(C)Nc1nc(Nc2ccc(OCCN(C)C3CCCC3)cc2)ncc1Cl [Compound 33, (1R,2R,3S,5R)-2-(5-chloro-2-(4-(2-((cyclopentyl)(methyl)amino)ethoxy)phenylamino)pyrimidin-4-ylamino)-N,2,6,6-tetramethylbicyclo[3.1.1]heptane-3-carboxamide] | > 6.00

Other lines, results leading:

pIC50 | Structure (SMILES)
> 6.00 | CC1(C)[C@H]2C[C@H](C(N)=O)[C@](C)(Nc3nc(Nc4ccc(OCCN5CCCC5)cc4)ncc3Cl)[C@@H]1C2 [Compound 29, (1R,2R,3S,5R)-2-(5-chloro-2-(4-(2-(pyrrolidin-1-yl)ethoxy)phenylamino)pyrimidin-4-ylamino)-2,6,6-trimethylbicyclo[3.1.1]heptane-3-carboxamide]
5.00 to 6.00 | CNC(=O)[C@H]1C[C@H]2C[C@H](C2(C)C)[C@@]1(C)Nc1nc(Nc2ccc(N3CCN(CCO)CC3)cc2)ncc1C [Compound 42, (1R,2R,3S,5R)-2-(5-methyl-2-(4-(4-(2-hydroxyethyl)piperazin-1-yl)phenylamino)pyrimidin-4-ylamino)-N,2,6,6-tetramethylbicyclo[3.1.1]heptane-3-carboxamide]
> 6.00 | CC1(C)[C@H]2C[C@H](C(=O)NC3CC3)[C@](C)(Nc3nc(Nc4ccc(OCCN5CCCC5)cc4)ncc3Cl)[C@@H]1C2 [Compound 61, (1R,2R,3S,5R)-2-(5-chloro-2-(4-(2-(pyrrolidin-1-yl)ethoxy)phenylamino)pyrimidin-4-ylamino)-N-cyclopropyl-2,6,6-trimethylbicyclo[3.1.1]heptane-3-carboxamide]
> 6.00 | CNC(=O)[C@H]1C[C@H]2C[C@H](C2(C)C)[C@@]1(C)Nc1nc(Nc2ccc(N3CCC(N4CCN(C)CC4)CC3)c(F)c2)ncc1Cl [Compound 31, (1R,2R,3S,5R)-2-(5-chloro-2-(3-fluoro-4-(4-(4-methylpiperazin-1-yl)piperidin-1-yl)phenylamino)pyrimidin-4-ylamino)-N,2,6,6-tetramethylbicyclo[3.1.1]heptane-3-carboxamide]
< 4.70 | CNC(=O)[C@H]1C[C@H]2C[C@H](C2(C)C)[C@@]1(C)Nc1nc(Nc2ccc(N3CCN(c4ccc(F)cc4)CC3)cc2)ncc1Cl [Compound 11, (1R,2R,3S,5R)-2-(5-chloro-2-(4-(4-(4-fluorophenyl)piperazin-1-yl)phenylamino)pyrimidin-4-ylamino)-N,2,6,6-tetramethylbicyclo[3.1.1]heptane-3-carboxamide]

Same assay, conditions: Table 3, formula (Ic); Hela cells, Axl antibody cross-linking stimulation, phospho-Akt chemiluminescence normalized to relative cell number

pIC50 | Structure (SMILES)
5.00 to 6.00 | CNC(=O)[C@H]1C[C@H]2C[C@H](C2(C)C)[C@@]1(C)Nc1nc(Nc2ccc3c(c2)OCCN3CCN2CCOCC2)ncc1F [Compound 59, (1R,2R,3S,5R)-2-(5-fluoro-2-((3,4-dihydro-4-(2-(morpholin-4-yl)ethyl)-2H-benzo[b][1,4]oxazin-7-yl)amino)pyrimidin-4-ylamino)-N,2,6,6-tetramethylbicyclo[3.1.1]heptane-3-carboxamide]
> 6.00 | CN(C)CCN1CCOc2cc(Nc3ncc(Cl)c(N[C@@]4(C)[C@@H](C(=O)NCCO)C[C@H]5C[C@@H]4C5(C)C)n3)ccc21 [Compound 60, (1R,2R,3S,5R)-2-(5-chloro-2-((3,4-dihydro-4-(2-(dimethylamino)ethyl)-2H-benzo[b][1,4]oxazin-7-yl)amino)pyrimidin-4-ylamino)-N-(2-hydroxyethyl)-2,6,6-trimethylbicyclo[3.1.1]heptane-3-carboxamide]
> 6.00 | CNC(=O)[C@H]1C[C@H]2C[C@H](C2(C)C)[C@@]1(C)Nc1nc(Nc2ccc3c(c2)OCCN3CCN2CCCCC2)ncc1F [Compound 57, (1R,2R,3S,5R)-2-(5-fluoro-2-((3,4-dihydro-4-(2-(piperidin-1-yl)ethyl)-2H-benzo[b][1,4]oxazin-7-yl)amino)pyrimidin-4-ylamino)-N,2,6,6-tetramethylbicyclo[3.1.1]heptane-3-carboxamide]

Same assay, conditions: Table 4, formula (Id); Hela cells, Axl antibody cross-linking stimulation, phospho-Akt chemiluminescence normalized to relative cell number

pIC50 | Structure (SMILES)
> 6.00 | CNC(=O)[C@H]1C[C@H]2C[C@H](C2(C)C)[C@@]1(C)Nc1nc(Nc2ccc3c(c2)CCN3CCN(C)C)ncc1Cl [Compound 27, (1R,2R,3S,5R)-2-(5-chloro-2-(1-(2-(dimethylamino)ethyl)indolin-5-ylamino)pyrimidin-4-ylamino)-N,2,6,6-tetramethylbicyclo[3.1.1]heptane-3-carboxamide]
